# Data from paper PMC11357256, “Selectivity Screening and Structure–Cytotoxic Activity Observations of Selected Oleanolic Acid (OA)-Type Saponins from the Amaranthaceae Family on a Wiade Panel of Human Cancer Cell Lines” (Molecules, 2024).
# Like-named read-outs stand apart in the source and are kept apart here.
# Legend:
# HaCaT = assay: MTT cell viability assay, HaCaT keratinocytes; assay type: cell-based; conditions: Homo sapiens
# Excerpt: (§1) Cell lines used in the study were grouped as follows: skin panel (melanomas: HTB140, derived from metastatic site: lymph node, ATCC Hs 294 T; malignant A375, ATCC CRL-1619; stage I primary WM793, RRID:CVCL 8787; skin keratinocytes HaCaT); prostate panel (prostate carcinomas: Du145, derived from metastatic site: brain, ATCC HTB-81; grade IV PC3, derived from metastatic site: bone, ATCC CRL-1435, LNCaP, derived from the metastatic site: lymph node, ATCC CRL-1740; prostate epithelial, PNT2, ECACC 95012613); gastrointestinal panel (colorectal adenocarcinomas: Caco2, ATCC HTB-37, HT29, ATCC HTB-38, DLD-1, ATCC CCL-221, HCT116, ATCC CCL-247, and colon epithelial cells CCD 841 CoN, ATCC CRL-1790; hepatocellular carcinoma HepG2, ATCC HB-8065); thyroid panel (follicular thyroid carcinoma FTC133, ECACC 9406090, undifferentiated thyroid carcinoma 8505C, ECACC 94090184, papillary thyroid carcinoma TPC-1, SCC147, normal thyroid follicular epithelial Nthy-ori 3–1, ECACC 90011609); and breast panel (ER-positive breast adenocarcinoma MCF7, ATCC HTB-22; ER-negative breast adenocarcinoma MDA-MB-231, ATCC HTB-26; breast epithelial MCF10A, ATCC CRL-10317). Cells were grown under standard conditions (37 °C, 5% CO2, relative humidity), and culture media (DMEM/F12 for PNT2, WM 793, HT29, PC3, FTC133, 8505 C, MDA-MB-231, TPC-1; DMEM Low Glucose for DU145; DMEM High Glucose for HTB140, A375, HaCaT; MEM with NEAA for Caco2 and MCF7; RPMI1640 with sodium pyruvate for LNCaP; DMEM/F12 with 20 ng/mL epidermal growth factor (EGF), 10 μg/mL insulin, 0.5 μg/mL hydrocortisone, 100 ng/mL cholera toxin) for MCF10A) supplemented with 10% fetal bovine serum (FBS) or 5% donor horse serum for MCF10A, and 1% antibiotics solution (10,000 U penicillin and 10 mg streptomycin/mL) […], as previously described. All cell lines, culture media, and supplements were from Sigma-Aldrich (Germany).
# (§2) The cells were seeded in 96-well plates (1.5 × 10^4 cells/well). After 24 h, fresh medium was added, containing the tested compounds (0.5–100 μg/mL) and incubated for 24 or 48 h. Cell viability was determined by MTT assay, according to the manufacturer’s instructions, as described previously. Each experiment was performed in triplicate. The absorbance was measured at 570 nm using a Biotek Synergy microplate reader (BioTek Instruments Inc., Winooski, VT, USA). Cell viability was expressed as a percent of control (untreated cells). Doxorubicin was used as a reference drug.
# Caco-2 = assay: MTT cell viability assay, Caco-2 colon cancer cells; assay type: cell-based; conditions: Homo sapiens
# Excerpt: as §1, §2
# HT29 = assay: MTT cell viability assay, HT29 colorectal adenocarcinoma cells; assay type: cell-based; conditions: Homo sapiens, HT-29
# Excerpt: as §1, §2
# MDA-MB-231 = assay: MTT cell viability assay, MDA-MB-231 breast adenocarcinoma cells; assay type: cell-based; conditions: Homo sapiens
# Excerpt: as §1, §2
# HCT116 = assay: MTT cell viability assay, HCT116 colon cancer cells; assay type: cell-based; conditions: Homo sapiens, HCT-116
# Excerpt: as §1, §2
# HepG2 = assay: MTT cell viability assay, HepG2 hepatocellular carcinoma cells; assay type: cell-based; conditions: Homo sapiens
# Excerpt: as §1, §2
# A375 = assay: MTT cell viability assay, A375 malignant melanoma cells; assay type: cell-based, human; conditions: for IC50: Homo sapiens, A-375
# Excerpt: as §1, §2
# (§3) The selectivity index (SI) was calculated from the following formula:SI = IC50 of compound in a normal cell line/IC50 of compound in cancer cell line.IC50, half maximal inhibitory concentration, is a concentration required to kill 50% of the cells.
# MCF-7 cells = conditions: cited from earlier work
# HTB-140 = assay: MTT cell viability assay, HTB-140 metastatic melanoma cells; assay type: cell-based, human; conditions: for IC50: Homo sapiens
# Excerpt: as §1, §2, §3
# LNCaP = assay: MTT cell viability assay, LNCaP prostate adenocarcinoma cells; assay type: cell-based; conditions: Homo sapiens
# Excerpt: as §1, §2
# Du-145 = assay: MTT cell viability assay, Du-145 prostate carcinoma cells; assay type: cell-based; conditions: Homo sapiens
# Excerpt: as §1, §2
# CCD 841 CoN = assay: MTT cell viability assay, CCD 841 CoN normal colon epithelial cells; assay type: cell-based; conditions: Homo sapiens
# Excerpt: as §1, §2
# MCF10A = assay: MTT cell viability assay, MCF10A normal breast epithelial cells; assay type: cell-based; conditions: Homo sapiens, MCF-10A
# Excerpt: as §1, §2
# FTC133 = assay: MTT cell viability assay, FTC133 follicular thyroid carcinoma cells; assay type: cell-based, human; conditions: for IC50: Homo sapiens, FTC-133
# Excerpt: as §1, §2, §3
# MCF7 = assay: MTT cell viability assay, MCF7 breast adenocarcinoma cells; assay type: cell-based; conditions: Homo sapiens
# Excerpt: as §1, §2
# PC3 = assay: MTT cell viability assay, PC3 prostate carcinoma cells; assay type: cell-based; conditions: Homo sapiens, PC-3
# Excerpt: as §1, §2
# DLD-1 = assay: MTT cell viability assay, DLD-1 colon cancer cells; assay type: cell-based; conditions: Homo sapiens
# Excerpt: as §1, §2
# PNT2 = assay: MTT cell viability assay, PNT2 normal prostate epithelial cells; assay type: cell-based; conditions: Homo sapiens
# Excerpt: as §1, §2
# WM793 = assay: MTT cell viability assay, WM793 primary melanoma cells; assay type: cell-based, human; conditions: for IC50: Homo sapiens
# Excerpt: as §1, §2, §3
structure (smiles),measurement,setting,value
"CC1(C)CCC2(C(=O)O)CCC3(C)C(=CCC4C5(C)CCC(OC6OC(C(=O)O)C(O)C(O)C6O)C(C)(C)C5CCC43C)C2C1 [CE, oleanolic acid-3-O-β-D-glucuronopyranoside]",IC50,HaCaT; 24 h,5.1 µg/mL
same,IC50,HaCaT; 48 h,2 µg/mL
same,IC50,"Caco-2; Caco-2, 24 h",2 µg/mL
same,IC50,"Caco-2; Caco-2, 48 h",1 µg/mL
same,IC50,"HT29; HT29, 24 h",4.5 µg/mL
same,IC50,"HT29; HT29, 48 h",2 µg/mL
same,IC50,"MDA-MB-231; MDA-MB-231, 24 h",69.6 µg/mL
same,IC50,"MDA-MB-231; MDA-MB-231, 48 h",23.5 µg/mL
same,IC50,"HCT116; HCT116, 24 h",14.3 µg/mL
same,IC50,"HCT116; HCT116, 48 h",10.2 µg/mL
same,IC50,"HepG2; HepG2, 24 h",16.5 µg/mL
same,IC50,"HepG2; HepG2, 48 h",6.9 µg/mL
same,IC50,"A375; A375, 24 h",1.8 µg/mL
same,IC50,"A375; A375, 48 h",0.8 µg/mL
same,Selectivity Index (SI),"A375; IC50 HaCaT / IC50 A375, 24 h",2.9
same,Selectivity Index (SI),"A375; IC50 HaCaT / IC50 A375, 48 h",2.6
same,IC50,"MCF-7 cells; 48 h, ref 13",35.4 µg/mL
same,IC50,"MCF-7 cells; 48 h, ref 14, read-out: IC50",19.7 µM
same,IC50,"MCF-7 cells; 72 h, read-out: IC50",13.4 µM
same,IC50,"HTB-140; HTB-140, 24 h",2.8 µg/mL
same,IC50,"HTB-140; HTB-140, 48 h",1.7 µg/mL
same,Selectivity Index (SI),"HTB-140; IC50 HaCaT / IC50 HTB-140, 24 h",1.8
same,Selectivity Index (SI),"HTB-140; IC50 HaCaT / IC50 HTB-140, 48 h",1.1
same,IC50,LNCaP; 24 h,> 100 µg/mL
same,IC50,LNCaP; 48 h,> 100 µg/mL
same,IC50,"Du-145; DU-145, 24 h",6.7 µg/mL
same,IC50,"Du-145; DU-145, 48 h",4.3 µg/mL
same,IC50,CCD 841 CoN; 24 h,> 100 µg/mL
same,IC50,CCD 841 CoN; 48 h,> 100 µg/mL
same,IC50,MCF10A; 24 h,> 100 µg/mL
same,IC50,MCF10A; 48 h,> 100 µg/mL
same,IC50,"FTC133; FTC133, 24 h",1.9 µg/mL
same,IC50,"FTC133; FTC133, 48 h",1.1 µg/mL
same,Selectivity Index (SI),"FTC133; IC50 Nthy-ori 3-1 / IC50 FTC133, 24 h",38.6
same,Selectivity Index (SI),"FTC133; IC50 Nthy-ori 3-1 / IC50 FTC133, 48 h",28.1
same,IC50,"MCF7; MCF7, 24 h",> 100 µg/mL
same,IC50,"MCF7; MCF7, 48 h",39.5 µg/mL
same,IC50,"PC3; PC3, 24 h",5.6 µg/mL
same,IC50,"PC3; PC3, 48 h",2.9 µg/mL
same,IC50,"DLD-1; DLD-1, 24 h",31.2 µg/mL
same,IC50,"DLD-1; DLD-1, 48 h",9 µg/mL
same,IC50,PNT2; 24 h,> 100 µg/mL
same,IC50,PNT2; 48 h,> 100 µg/mL
same,IC50,"WM793; WM793, 24 h",2.4 µg/mL
same,IC50,"WM793; WM793, 48 h",1.2 µg/mL
same,Selectivity Index (SI),"WM793; IC50 HaCaT / IC50 WM793, 24 h",2.1
same,Selectivity Index (SI),"WM793; IC50 HaCaT / IC50 WM793, 48 h",1.6
